Assay results published in patent publication US5776955A, “Use of unsubstituted and substituted n-(pyrrol-1-yl)pyridinamines as anticonvulsant agents” (Hoechst Marion Roussel, Inc., priority 1996, dated 1998).

How the values were obtained:
sodium channels = details: 25 nM [^3 H]batrachotoxin, rat cortex vesicular preparation, 60 min, 25° C., pH 7.4; read-out: IC50, Inhibition of [^3 H]Batrachotoxin Binding
mice = test: Supramaximal electroshock in mice (block of tonic seizure); type: in vivo, mouse (male CD-1); details: intraperitoneal, male CD-1 mice
Method: This procedure is used as to predict anticonvulsant activity of a test compound in vivo by its ability to block a full tonic seizure induced by a supramaximal electroshock stimulation as an indication of efficacy in preventing grand mal seizures. Male CD-1 mice (Charles River) weighing 18-30 grams were housed in accordance with the "NIH Guide to Care and Use of Laboratory Animals" (National Institutes of Health Care Publication 85-23, revised 1985) with a 12 hour light/dark cycle and free access to food and water. On the day of testing, animals are brought to the laboratory and randomly assigned to groups of six for the time course experiments and to test groups of ten for the dose-response experiments. The apparatus used for the test was the Wahlquist Electroshock Stimulator (Model H), which has a power source of 120 volts ac. A current of 15.5 mA lasting for 300 msec was delivered by placing the terminals of the stimulator across the eyes of the animal. This stimulus results in a tonic seizure, defined as a brief period of hindlimb flexion followed by a prolonged period of hindlimb extension. […] Protection is calculated as a normalized percent inhibition relative to a vehicle treated control group. A time course is performed to determine the peak time of drug action and then a dose response performed at the peak time to determine drug potency. Mice are dosed in a randomized fashion using a total of 4 dose groups and one vehicle control group. The ED50 value and 95% confidence limits are calculated by a computerized Litchfield and Wilcoxon analysis. Drugs are prepared dissolved in distilled water and, if insoluble a drop of surfactant is added. Drugs are routinely administered intraperitoneally for this test and given in a dosage volume of 10 ml/kg.

membrane sodium channels = details: Willow and Catterall, 1982; Olsen, 1986; cited from earlier work

Structure (SMILES): CCCN(c1ccncc1F)n1cc(C)c2cc(O)ccc21 [1-[(3-Fluoro-4-pyridinyl)propylamino]-3-methyl-1H-indol-5-ol]
- IC50 (sodium channels): 19 µM

Structure (SMILES): CCCN(c1ccncc1)n1cc(C)c2ccccc21.O=C(O)/C=C\C(=O)O [3-Methyl-N-propyl-N-(4-pyridinyl)-1H-indol-1-amine maleate]
- ED50 (mice; Mus musculus, ip, at peak time of drug action, read-out: ED50, inhibition of supramaximal electroshock): 14.4 mg/kg

Structure (SMILES): NC(=O)N1c2ccccc2C=Cc2ccccc21 [Carbamazepine]
- allosteric inhibition of [^3 H]batrachotoxin binding (membrane sodium channels): allosterically inhibit the binding of [^3 H]batrachotoxin to membrane sodium channels

Structure (SMILES): CCCN(c1ccncc1F)n1cc(C)c2ccccc21.Cl [N-(3-Fluoro-4-pyridinyl)-N-propyl-3-methyl-1H-indol-1-amine hydrochloride]
- percent inhibition (protection), supramaximal electroshock (mice; 30 mpk): 50%
- percent inhibition (protection), supramaximal electroshock (mice; 60 mpk): 50%
